Source: ChEMBL document CHEMBL3885881, “DrugMatrix”

Species on record: Rattus norvegicus
Assay: DrugMatrix - Regimen: Daily Repeat
Type: toxicity, organism-based, Sprague-Dawley
Set-up: regimen Daily Repeat, gender Male, age 6-8 weeks
Conditions: in vivo, po, route oral GAVAGE, vehicle .5 % CMC; for ABSOLUTE BASOPHIL / ABSOLUTE EOSINOPHIL / ABSOLUTE LYMPHOCYTE / ABSOLUTE MONOCYTE / ABSOLUTE SEGMENTED NEUTROPHIL / BASOPHIL / EOSINOPHIL / ERYTHROCYTE COUNT / HEMATOCRIT / HEMOGLOBIN / LEUKOCYTE COUNT / LYMPHOCYTE / MEAN CORPUSCULAR HEMOGLOBIN / MEAN CORPUSCULAR HEMOGLOBIN CONCENTRATION / MEAN CORPUSCULAR VOLUME / MONOCYTE / NEUTROPHIL / NUCLEATED RED BLOOD CELLS / PLATELET COUNT: tissue Blood; for ALANINE AMINOTRANSFERASE / ALBUMIN / ALKALINE PHOSPHATASE / ASPARTATE AMINOTRANSFERASE / BLOOD UREA NITROGEN / CARBON DIOXIDE / CHLORIDE / CHOLESTEROL / CREATINE PHOSPHOKINASE / CREATININE / GLUCOSE / LACTATE DEHYDROGENASE / LIPASE / PHOSPHORUS / POTASSIUM / SODIUM / TOTAL BILIRUBIN / TOTAL PROTEIN / URIC ACID: tissue Plasma
[1] = 50 mg/kg, 72 h, dose level Low, time 3 day
[2] = 50 mg/kg, 120 h, dose level Low, time 5 day
[3] = 1200 mg/kg, 72 h, dose level High, time 3 day
[4] = 1200 mg/kg, 120 h, dose level High, time 5 day

## CC[C@H](C)C(=O)O[C@H]1CCC=C2C=C[C@H](C)[C@H](CC[C@@H]3C[C@@H](O)CC(=O)O3)[C@H]21 [MEVASTATIN]
[1]
  ABSOLUTE BASOPHIL: 0 CELLS/uL
  ABSOLUTE EOSINOPHIL: 41.33 CELLS/uL
  ABSOLUTE LYMPHOCYTE: 11887.33 CELLS/uL
  ABSOLUTE MONOCYTE: 84.33 CELLS/uL
  ABSOLUTE SEGMENTED NEUTROPHIL: 587 CELLS/uL
  BASOPHIL: 0%
  EOSINOPHIL: 0.33%
  ERYTHROCYTE COUNT: 5.78 x10E6/uL
  HEMATOCRIT: 37.3%
  HEMOGLOBIN: 14.77 G/DL
  LEUKOCYTE COUNT: 12.6 x10E3/uL
  LYMPHOCYTE: 94.33%
  MEAN CORPUSCULAR HEMOGLOBIN: 25.53 pg
  MEAN CORPUSCULAR HEMOGLOBIN CONCENTRATION: 39.6 G/DL
  MEAN CORPUSCULAR VOLUME: 64.47 fL
  MONOCYTE: 0.67%
  NEUTROPHIL: 4.67%
  NUCLEATED RED BLOOD CELLS: 1 /100WBC
  PLATELET COUNT: 1148.33 x10E3/uL
  ALANINE AMINOTRANSFERASE: 48.67 u/L
  ALBUMIN: 4.43 G/DL
  ALKALINE PHOSPHATASE: 400 u/L
  ASPARTATE AMINOTRANSFERASE: 85.67 u/L
  BLOOD UREA NITROGEN: 16 mg/dL
  CARBON DIOXIDE: 25.33 mmol/L
  CHLORIDE: 100.33 MEQ/L
  CHOLESTEROL: 87 mg/dL
  CREATINE PHOSPHOKINASE: 404 u/L
  CREATININE: 0.2 mg/dL
  GLUCOSE: 161 mg/dL
  LACTATE DEHYDROGENASE: 232.67 u/L
  LIPASE: 8.67 u/L
  PHOSPHORUS: 14.2 mg/dL
  POTASSIUM: 6.89 MEQ/L
  SODIUM: 146.63 MEQ/L
  TOTAL BILIRUBIN: 0.33 mg/dL
  TOTAL PROTEIN: 6.2 G/DL
  URIC ACID: 1.93 mg/dL
[2]
  ABSOLUTE BASOPHIL: 0 CELLS/uL
  ABSOLUTE EOSINOPHIL: 47 CELLS/uL
  ABSOLUTE LYMPHOCYTE: 15631 CELLS/uL
  ABSOLUTE MONOCYTE: 0 CELLS/uL
  ABSOLUTE SEGMENTED NEUTROPHIL: 1122 CELLS/uL
  BASOPHIL: 0%
  EOSINOPHIL: 0.33%
  ERYTHROCYTE COUNT: 5.52 x10E6/uL
  HEMATOCRIT: 35.63%
  HEMOGLOBIN: 13.8 G/DL
  LEUKOCYTE COUNT: 16.8 x10E3/uL
  LYMPHOCYTE: 93%
  MEAN CORPUSCULAR HEMOGLOBIN: 25.03 pg
  MEAN CORPUSCULAR HEMOGLOBIN CONCENTRATION: 38.77 G/DL
  MEAN CORPUSCULAR VOLUME: 64.6 fL
  MONOCYTE: 0%
  NEUTROPHIL: 6.67%
  NUCLEATED RED BLOOD CELLS: 1 /100WBC
  PLATELET COUNT: 1219.33 x10E3/uL
  ALANINE AMINOTRANSFERASE: 52.67 u/L
  ALBUMIN: 4.5 G/DL
  ALKALINE PHOSPHATASE: 335.67 u/L
  ASPARTATE AMINOTRANSFERASE: 79.67 u/L
  BLOOD UREA NITROGEN: 15.67 mg/dL
  CARBON DIOXIDE: 25.67 mmol/L
  CHLORIDE: 103 MEQ/L
  CHOLESTEROL: 67.33 mg/dL
  CREATINE PHOSPHOKINASE: 212.33 u/L
  CREATININE: 0.19 mg/dL
  GLUCOSE: 153.33 mg/dL
  LACTATE DEHYDROGENASE: 162 u/L
  LIPASE: 9 u/L
  PHOSPHORUS: 12.43 mg/dL
  POTASSIUM: 6.8 MEQ/L
  SODIUM: 146.23 MEQ/L
  TOTAL BILIRUBIN: 0.23 mg/dL
  TOTAL PROTEIN: 6.3 G/DL
  URIC ACID: 1.63 mg/dL
[3]
  ABSOLUTE BASOPHIL: 0 CELLS/uL
  ABSOLUTE EOSINOPHIL: 56 CELLS/uL
  ABSOLUTE LYMPHOCYTE: 15055 CELLS/uL
  ABSOLUTE MONOCYTE: 329 CELLS/uL
  ABSOLUTE SEGMENTED NEUTROPHIL: 1226.67 CELLS/uL
  BASOPHIL: 0%
  EOSINOPHIL: 0.33%
  ERYTHROCYTE COUNT: 5.72 x10E6/uL
  HEMATOCRIT: 38.57%
  HEMOGLOBIN: 15.2 G/DL
  LEUKOCYTE COUNT: 16.67 x10E3/uL
  LYMPHOCYTE: 90.33%
  MEAN CORPUSCULAR HEMOGLOBIN: 26.6 pg
  MEAN CORPUSCULAR HEMOGLOBIN CONCENTRATION: 39.43 G/DL
  MEAN CORPUSCULAR VOLUME: 67.5 fL
  MONOCYTE: 2%
  NEUTROPHIL: 7.33%
  NUCLEATED RED BLOOD CELLS: 0.67 /100WBC
  PLATELET COUNT: 1303 x10E3/uL
  ALANINE AMINOTRANSFERASE: 47.67 u/L
  ALBUMIN: 4.63 G/DL
  ALKALINE PHOSPHATASE: 402.33 u/L
  ASPARTATE AMINOTRANSFERASE: 96.67 u/L
  BLOOD UREA NITROGEN: 20 mg/dL
  CARBON DIOXIDE: 29.33 mmol/L
  CHLORIDE: 102.67 MEQ/L
  CHOLESTEROL: 68.33 mg/dL
  CREATINE PHOSPHOKINASE: 235 u/L
  CREATININE: 0.16 mg/dL
  GLUCOSE: 180 mg/dL
  LACTATE DEHYDROGENASE: 194 u/L
  LIPASE: 9 u/L
  PHOSPHORUS: 14.33 mg/dL
  POTASSIUM: 7.63 MEQ/L
  SODIUM: 146.93 MEQ/L
  TOTAL BILIRUBIN: 0.13 mg/dL
  TOTAL PROTEIN: 6.37 G/DL
  URIC ACID: 2.77 mg/dL
[4]
  ABSOLUTE BASOPHIL: 0 CELLS/uL
  ABSOLUTE EOSINOPHIL: 0 CELLS/uL
  ABSOLUTE LYMPHOCYTE: 14826.67 CELLS/uL
  ABSOLUTE MONOCYTE: 346.67 CELLS/uL
  ABSOLUTE SEGMENTED NEUTROPHIL: 1426.67 CELLS/uL
  BASOPHIL: 0%
  EOSINOPHIL: 0%
  ERYTHROCYTE COUNT: 5.39 x10E6/uL
  HEMATOCRIT: 33.63%
  HEMOGLOBIN: 13.5 G/DL
  LEUKOCYTE COUNT: 16.6 x10E3/uL
  LYMPHOCYTE: 89.67%
  MEAN CORPUSCULAR HEMOGLOBIN: 25.1 pg
  MEAN CORPUSCULAR HEMOGLOBIN CONCENTRATION: 40.2 G/DL
  MEAN CORPUSCULAR VOLUME: 62.43 fL
  MONOCYTE: 2%
  NEUTROPHIL: 8.33%
  NUCLEATED RED BLOOD CELLS: 0 /100WBC
  PLATELET COUNT: 1567.67 x10E3/uL
  ALANINE AMINOTRANSFERASE: 54.33 u/L
  ALBUMIN: 4.5 G/DL
  ALKALINE PHOSPHATASE: 319 u/L
  ASPARTATE AMINOTRANSFERASE: 97 u/L
  BLOOD UREA NITROGEN: 19.33 mg/dL
  CARBON DIOXIDE: 33 mmol/L
  CHLORIDE: 100.33 MEQ/L
  CHOLESTEROL: 65.33 mg/dL
  CREATINE PHOSPHOKINASE: 319.67 u/L
  CREATININE: 0.19 mg/dL
  GLUCOSE: 136.67 mg/dL
  LACTATE DEHYDROGENASE: 464 u/L
  LIPASE: 8.67 u/L
  PHOSPHORUS: 12.33 mg/dL
  POTASSIUM: 6.95 MEQ/L
  SODIUM: 143.97 MEQ/L
  TOTAL BILIRUBIN: 0.2 mg/dL
  TOTAL PROTEIN: 6.1 G/DL
  URIC ACID: 1.8 mg/dL
